Earlier results, collected in patent publication US20090215102A1, “Method to Assess Breast Cancer Risk” (priority 2005, published 2009).
Counter-ions that a name gives are not always drawn. Like-named read-outs stand apart in the source and are kept apart here.

Tests used:
estrogen receptors = details: preclinical data
[1] = in vivo
[2] = tested on: rat mammary carcinoma induced by dimethylbenzanthracene (DMBA)

For `O=C(c1ccc(OCCN2CCCCC2)cc1)c1c(-c2ccc(O)cc2)sc2cc(O)ccc12` [Raloxifene], the “clearance following chronic dosing” value is given as 40 to 60 L/kg per hour and the “action in uterine and breast tissues” value (estrogen receptors) is given as “estrogen antagonist”.

In the case of `CC/C(=C(\c1ccccc1)c1ccc(OCCNC)cc1)c1ccccc1` [N-desmethyl tamoxifen], the “half-life of metabolite suggested by time to steady state” value [1] is listed as about 14 days.

For `CC/C(=C(\c1ccccc1)c1ccc(OCCN(C)C)cc1)c1ccccc1` [Tamoxifen citrate], the “antiestrogenic properties in animal test systems” value ([2]; animal test systems) is listed as “potent antieskogenic properties”.

In the case of `CC/C(=C(\c1ccccc1)c1ccc(OCCN(C)C)cc1)c1ccccc1` [Tamoxifen], the “induction of rat mammary carcinoma induced by DMBA” value ([2]; rat) is given as “inhibits the induction”, the associated toxicity (breast cancer; particularly women aged 50 or older) is given as “increased risk of endometrial cancer, stroke, pulmonary emboli, and deep vein thrombosis” and the “breast cancer risk reduction” value (breast cancer; women with a history of LCIS) is given as 56%. The “breast cancer risk reduction” value (breast cancer; women with a history of atypical ductal hyperplasia) was 86%.
